Assay results published in patent US20250057822A1, “PSYCHO[…] TREATING HEARING-RELATED DISORDERS” (THE REGENTS OF THE UNIVERSITY OF CALIFORNIA, priority 2021, published 2025).

Key:
[1] = system: C57/B6 female mice; test: Auditory brainstem response (ABR) assay, wave I amplitude; type: in vivo; conditions: 1 mg/kg, 24 h post-treatment vs baseline (5-6 days pre-treatment), p<0.01, n=3
Description: The ABR amplitudes were analyzed at baseline (5-6 days pre-treatment) and 24 h post-treatment of vehicle (FIG. 2A and FIG. 2B) or 1 mg/kg of the psychoplastogen psilocin (FIG. 2C and FIG. 2D) at 8 and 16 kHz. Data are presented as mean±SEM. […] N=3 8-week old C57/B6 female mice per condition.
Auditory brainstem responses (ABRs) were recorded at baseline (5-6 days prior to treatment) and 24 h post treatment with psilocin (1 mg/kg). Mice were anesthetized via i.p. injections of ketamine (90 mg/kg) and xylazine (20 mg/kg). Subcutaneous electrodes were placed behind the right pinna (inverting) and vertex (active). A ground electrode was placed in the left leg of the mouse. Stimuli were 5-ms tone pips (2 ms cos2 rise-fall) delivered at 21/s with alternating stimulus polarity. Recorded electrical responses were filtered (300 Hz to 3 kHz) and averaged using BioSig software (TDT). The sound intensity level was decreased in 5 dB increments from 90 dB SPL-20 dB SPL. At each sound level 512 responses were averaged.
Wave I amplitudes were measured from the estimated baseline prior to the response to the peak of wave I in μV. ABR wave I amplitudes were analyzed at baseline (5-6 days pre-treatment) and 24 h post-treatment of psilocin (1 mg/kg). Data analyses and statistics were performed using Prism version 9.4 (GraphPad) and presented as mean±SEM. […]

[2] = system: inner hair cell ribbon synapses (organ of Corti); test: Inner hair cell ribbon synapse density 24 h after psilocin treatment; type: in vivo, mice; conditions: 1 mg/kg, 24 h after treatment, mean±SEM
Description: C57/B6 female mice, aged 8-weeks-old were treated with psilocin (1 mg/kg) (n=3) and Vehicle (0.9% saline) (n=2). […] Synapse density increase was not significant in the 8 kHz region (Vehicle: 16.50±3.826, psilocin: 17.79±3.826, P=0.5554). For each animal, 17-22 inner hair cells were quantified per frequency (8 kHz and 16 kHz regions of the organ of Corti). Data are presented as mean±SEM.*p<0.05.
8-week old C57/B6 mice were injected with 1 mg/kg psilocin or vehicle control (0).9% saline). 24 h later, mice were euthanized then inner ear tissues were collected for immunofluorescence. Isolated cochlea were punched into oval and round windows using a syringe needle and rinsed/fixed with 4% paraformaldehyde in 1×cold PBS. Then, cochlea were further fixed in 4% paraformaldehyde in 1×cold PBS for additional 2 hours at 4C0. Following fixation, samples were rinsed 3×20 min in PBS and dissected under a stereomicroscope to the three turns: apical, middle and basal. Tissues were permeabilized in PBS+0.25% Triton X-100 solution for 10 min at room temperature on a rocking platform; blocked with 10% goat serum and 25 mM glycine for 1 h at RT. […]

With `CN(C)CCc1c[nH]c2cccc(O)c12` [psilocin] the “ABR wave I amplitude, change from baseline” value ([1]; 8 kHz) was “significantly increased”, the “ABR wave I amplitude, change from baseline” value ([1]; 16 kHz) was “significantly increased” and the “inner hair cell ribbon synapse density” value ([2]; 8 kHz region, not significant vs vehicle 16.50±3.826, P=0.5554) was 17.79±3.826. The “inner hair cell ribbon synapse density” value ([2]; 16 kHz region, significant vs vehicle 16±3.826, P=0.0169) was 23.27±3.826.
